Results: ChEMBL document CHEMBL3992566, “Development and Biological Evaluation of a Photoactivatable Small Molecule Microtubule-Targeting Agent” (ACS Med Chem Lett, 2017)
Each block holds one molecule with its values, some of them ahead of it. Active and inactive are the calls of the source. No cut-off for these calls is given here.

Key:
[1] = Induction of apoptosis in patient-derived RN1 cells assessed as necrotic cells at 5 uM after 48 hrs under UV irradiation of 1800 mW for 30 secs by Annexin V staining based assay relative to control; format: functional, Homo sapiens
[2] = Induction of apoptosis in patient-derived RN1 cells assessed as live cells at 5 uM after 48 hrs under UV irradiation of 1800 mW for 30 secs by Annexin V staining based assay relative to control; format: functional, Homo sapiens
[3] = Induction of apoptosis in patient-derived RN1 cells at 5 uM after 48 hrs under dark condition by Annexin V staining based assay (reference value: 8.1%); format: cell-based; conditions: human, rn1, 48 h
[4] = Phototoxicity against patient-derived RN1 cells assessed as reduction in cell viability under UV irradiation of 1800 mW for 30 secs measured after 72 hrs by Cell-Titer Blue assay; format: functional, cell-based; conditions: Homo sapiens, RN1, light or radiation study
[5] = Induction of apoptosis in patient-derived RN1 cells assessed as late apoptotic cells at 5 uM after 48 hrs under UV irradiation of 1800 mW for 30 secs by Annexin V staining based assay relative to control; format: functional, Homo sapiens
[6] = Dark toxicity against human U251 cells assessed as reduction in cell viability after 72 hrs by Cell-Titer Blue assay; format: cell-based, U-251
[7] = species on record: Homo sapiens; test: Disruption of microtubule organization in human U251 cells at 5 uM after 24 hrs under UV irradiation of 1800 mW for 5 mins by DAPI staining based immunofluorescence assay; format: cell-based
[8] = Disruption of microtubule organization in human U251 cells at 5 uM after 24 hrs under dark condition by DAPI staining based immunofluorescence assay; format: ADME, cell-based
[9] = Dark toxicity against patient-derived RN1 cells assessed as reduction in cell viability after 72 hrs by Cell-Titer Blue assay; format: cell-based; conditions: human
[10] = Photoactivation of prodrug assessed as 4-(4-(2-fluoropyridin-3-yl)phenyl)-N-(4-hydroxyphenyl)butanamide release at 1 mM under UV irradiation of 5400 mW after 1 min by HPLC-MS analysis
[11] = Disruption of microtubule organization in human U251 cells assessed as changes in cell morphology at 5 uM after 24 hrs under dark condition by DAPI staining based immunofluorescence assay; format: ADME
[12] = Photoactivation of prodrug assessed as decay time constant for 4-(4-(2-fluoropyridin-3-yl)phenyl)-N-(4-hydroxyphenyl)butanamide release at 1 mM under UV irradiation of 5400 mW after 1 min by HPLC-MS analysis
[13] = Photoactivation of prodrug assessed as time required to release maximum concentration of 4-(4-(2-fluoropyridin-3-yl)phenyl)-N-(4-hydroxyphenyl)butanamide at 1 mM under UV irradiation of 5400 mW by HPLC-MS analysis
[14] = species on record: Homo sapiens; test: Disruption of microtubule organization in human U251 cells assessed as cell rounding at 5 uM after 24 hrs under UV irradiation of 1800 mW for 5 mins by DAPI staining based immunofluorescence assay
[15] = tested on: U-251; test: Phototoxicity against human U251 cells assessed as reduction in cell viability under UV irradiation of 1800 mW for 1 min measured after 72 hrs by Cell-Titer Blue assay; format: functional, cell-based; conditions: U-251, light or radiation study
[16] = Induction of apoptosis in patient-derived RN1 cells assessed as early apoptotic cells at 5 uM after 48 hrs under UV irradiation of 1800 mW for 30 secs by Annexin V staining based assay relative to control; format: functional, Homo sapiens
[17] = Effect on colchicine binding to porcine brain tubulin up to 60 uM after 90 mins under dark condition by fluorescence assay; format: ADME, Sus scrofa; conditions: pig, 1.5 h
[18] = Effect on kinetics of porcine brain tubulin polymerization at 50 uM under dark condition by fluorescence assay; format: ADME, Sus scrofa; conditions: pig
[19] = species on record: Sus scrofa; test: Inhibition of porcine brain tubulin polymerization at 50 uM under UV irradiation of 1800 mW for 5 mins by fluorescence assay
[20] = tested on: U-251; test: Phototoxicity against human U251 cells assessed as reduction in cell viability up to 100 uM under UV irradiation of 1800 mW for 1 min measured after 72 hrs by Cell-Titer Blue assay; format: functional, cell-based
[21] = Drug metabolism in human U251 cells assessed as DMNB release up to 100 uM under UV irradiation of 1800 mW for 1 min measured after 72 hrs; format: ADME, cell-based; conditions: u-251, 72 h
[22] = species on record: Sus scrofa; test: Inhibition of porcine brain tubulin polymerization at 3 uM by fluorescence assay
[23] = Induction of apoptosis in patient-derived RN1 cells at 5 uM after 48 hrs by Annexin V staining based assay (reference value: 8.1%); format: functional, Homo sapiens
[24] = Photostability of the compound at 1 mM under UV irradiation of 5400 mW after 20 mins by HPLC-MS analysis
[25] = species on record: Homo sapiens; test: Disruption of microtubule organization in human U251 cells at 5 uM after 24 hrs by DAPI staining based immunofluorescence assay; format: cell-based
[26] = Cytotoxicity against patient-derived RN1 cells assessed as reduction in cell viability after 72 hrs by Cell-Titer Blue assay; format: functional, cell-based; conditions: Homo sapiens, RN1, 72 h
[27] = species on record: Homo sapiens; test: Disruption of microtubule organization in human U251 cells assessed as changes in cell morphology at 5 uM after 24 hrs by DAPI staining based immunofluorescence assay
[28] = tested on: U-251; test: Cytotoxicity against human U251 cells assessed as reduction in cell viability after 72 hrs by Cell-Titer Blue assay; format: functional, cell-based; conditions: U-251, 72 h
[29] = species on record: Sus scrofa; test: Inhibition of colchicine binding to porcine brain tubulin after 90 mins by fluorescence assay
[30] = species on record: Sus scrofa; test: Inhibition of porcine brain tubulin polymerization at 50 uM by fluorescence assay
[31] = species on record: Sus scrofa; test: Inhibition of colchicine binding to porcine brain tubulin up to 60 uM after 90 mins by fluorescence assay
[32] = tested on: U-251; test: Cytotoxicity against human U251 cells assessed as reduction in cell viability at >40 uM after 72 hrs by Cell-Titer Blue assay; format: functional, cell-based

Activity [8]: Not Active
Activity [11]: Not Active
Activity [17]: Not Active
Activity [18]: Not Active
inhibition [19]: Active
Structure (SMILES): COc1cc(COc2ccc(NC(=O)CCCc3ccc(-c4cccnc4F)cc3)cc2)c([N+](=O)[O-])cc1OC
Activity [1]: 0.5%
Activity [2]: 36.95%
Activity [3]: 12.6%
EC50 [4]: 1.2 µM
Activity [5]: 41.3%
EC50 at 72 h [6]: 72 µM
Activity [7]: Active
EC50 at 72 h [9]: 37.4 µM
Drug metabolism [10]: 80%
TIME [12]: 0.0101 h
TIME [13]: > 0.0333 h
Activity [14]: Active
EC50 [15]: 2.1 µM
Activity [16]: 20.75%

Drug metabolism [21]: Metabolite_Detected
Structure (SMILES): COc1cc(COC(=O)C(C)NC(=O)OC(C)(C)C)c([N+](=O)[O-])cc1OC (stereo unspecified)
Activity [20]: inactive

inhibition [22]: inactive
Structure (SMILES): CC(=O)O[C@H]1C(=O)[C@@]2(C)[C@H]([C@H](OC(=O)c3ccccc3)[C@]3(O)C[C@H](OC(=O)[C@H](O)[C@@H](NC(=O)c4ccccc4)c4ccccc4)C(C)=C1C3(C)C)[C@]1(OC(C)=O)CO[C@@H]1C[C@@H]2O

inhibition [29]: Dose-dependent effect
inhibition [30]: Active
Structure (SMILES): O=C(CCCc1ccc(-c2cccnc2F)cc1)Nc1ccc(O)cc1
Activity [23]: 47.8%
Stability [24]: Stable
EC50 [4]: 0.7 µM
Activity [25]: Active
EC50 [26]: 0.3 µM
Activity [27]: Active
EC50 [28]: 1.3 µM
EC50 [15]: 1.4 µM

inhibition [31]: Active
Structure (SMILES): COC(=O)Nc1nc2cc(C(=O)c3cccs3)ccc2[nH]1

inhibition [31]: inactive
inhibition [22]: Active
Structure (SMILES): CC[C@]1(O)C[C@@H]2CN(CCc3c([nH]c4ccccc34)[C@@](C(=O)OC)(c3cc4c(cc3OC)N(C)[C@H]3[C@@](O)(C(=O)OC)[C@H](OC(C)=O)[C@]5(CC)C=CCN6CC[C@]43[C@@H]65)C2)C1

Structure (SMILES): O=C(CCCc1ccc(-c2cccnc2F)cc1)Nc1ccc(OCc2ccccc2)cc1
Activity [32]: inactive
